According to patent US20230085307A1, “PYRIDAZINONE COMPOUND AND HERBICIDE” (NISSAN CHEMICAL CORPORATION, priority 2019, published 2023):

Key:
wild oat [1] = experiment: Test Example 5: herbicidal effect by foliage application, plastic box (Table 20, symbol I); format: in vivo, wild oat (Avena fatua); settings: foliage application, evaluated three weeks after application
Procedure, shortened: (§1)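 Sow seeds spot-wise in sterilized diluvial soil; cover with ~1.5 cm soil. Grow 14 days in greenhouse, 25° C. to 30° C. Spray foliage with emulsion diluted to predetermined amount. Rate effect after 3 weeks.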

persian speedwell [2] = experiment: Test Example 5: herbicidal effect by foliage application, plastic box (Table 20, symbol R); format: in vivo, Persian speedwell (Veronica persica); settings: foliage application, evaluated three weeks after application
Procedure, shortened: as §1

windgrass [3] = experiment: Test Example 4: herbicidal effect by soil treatment (Table 19, symbol L); format: in vivo, windgrass (Apera spica-venti); settings: amount of applied herbicide 320 g/ha
Procedure, shortened: (§2)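 Applied as a water-diluted emulsion, the compound was sprayed onto soil covering newly sown seeds. Evaluation came three weeks after application, in a greenhouse held at 25° C. to 30° C.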

Japanese bulrush = experiment: Test Example 1: herbicidal activity, application before weed generation under submerged conditions (Table 16, symbol B); format: in vivo, Japanese bulrush (Schoenoplectus juncoides); settings: 320 g/ha applied herbicide
Procedure, shortened: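 Emulsion formulation, water-diluted to set dose, was put onto the flooded surface (4 cm depth, alluvial soil) the same day weeds were sown and 2.5-leaf rice transplanted. After 3 weeks at 25-30 °C under glass, each species was rated 0 (≤5% kill) to 5 (≥90% kill).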

late watergrass = experiment: Test Example 2: herbicidal activity, application during weed generation under submerged conditions (Table 17, symbol A); format: in vivo, late watergrass (Echinochloa oryzicola); settings: AAH 320 g/ha; application during weed generation, submerged conditions
Procedure, shortened: (§3)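 In this pot test, flooded alluvial soil (water depth 4 cm) holds all three species sown as a mixture. Once seedlings have one to two leaves, the compound's emulsion, thinned with water to the intended dose, is poured on the water; grading follows after three weeks on the earlier criteria.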

Italian ryegrass = experiment: Test Example 4: herbicidal effect by soil treatment (Table 19, symbol K); format: in vivo, Italian ryegrass (Lolium multiflorum); settings: amount of applied herbicide 320 g/ha
Procedure, shortened: as §2

lambsquarters [4] = experiment: Test Example 5: herbicidal effect by foliage application, plastic box (Table 20, symbol O); format: in vivo, lambsquarters (Chenopodium album); settings: foliage application, evaluated three weeks after application
Procedure, shortened: as §1

blackgrass = experiment: Test Example 4: herbicidal effect by soil treatment (Table 19, symbol J); format: in vivo, blackgrass (Alopecurus myosuroides); settings: amount of applied herbicide 320 g/ha
Procedure, shortened: as §2

lambsquarters [5] = experiment: Test Example 4: herbicidal effect by soil treatment (Table 19, symbol O); format: in vivo, lambsquarters (Chenopodium album); settings: amount of applied herbicide 320 g/ha
Procedure, shortened: as §2

oval-leafed pondweed = experiment: Test Example 2: herbicidal activity, application during weed generation under submerged conditions (Table 17, symbol C); format: in vivo, oval-leafed pondweed (Monochoria vaginalis); settings: AAH 320 g/ha; application during weed generation, submerged conditions
Procedure, shortened: as §3

Chinese sprangletop = experiment: Test Example 3: herbicidal effect by foliage application, Wagner pot (Table 18, symbol D); format: in vivo, chinese sprangletop (Leptochloa chinensis); settings: for herbicidal effect on D: Chinese sprangletop: amount of applied herbicide 320 g/ha
Procedure, shortened: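 Plants were sown in alluvial soil held under 0.1–0.5 cm standing water and grown 14 days in a greenhouse at 25–30 °C. An emulsifiable formulation, water-diluted to the set dose, was then sprayed onto the foliage, and effects were scored three weeks later using previously defined criteria.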

windgrass [6] = experiment: Test Example 5: herbicidal effect by foliage application, plastic box (Table 20, symbol L); format: in vivo, windgrass (Apera spica-venti); settings: foliage application, evaluated three weeks after application
Procedure, shortened: as §1

wild oat [7] = experiment: Test Example 4: herbicidal effect by soil treatment (Table 19, symbol I); format: in vivo, wild oat (Avena fatua); settings: amount of applied herbicide 320 g/ha
Procedure, shortened: as §2

southern crabgrass = experiment: Test Example 4: herbicidal effect by soil treatment (Table 19, symbol F); format: in vivo, southern crabgrass (Digitaria ciliaris); settings: amount of applied herbicide 320 g/ha
Procedure, shortened: as §2

persian speedwell [8] = experiment: Test Example 4: herbicidal effect by soil treatment (Table 19, symbol R); format: in vivo, Persian speedwell (Veronica persica); settings: amount of applied herbicide 320 g/ha
Procedure, shortened: as §2

velvetleaf = experiment: Test Example 5: herbicidal effect by foliage application, plastic box (Table 20, symbol M); format: in vivo, velvetleaf (Abutilon theophrasti); settings: foliage application, evaluated three weeks after application
Procedure, shortened: as §1

barnyard grass = experiment: Test Example 5: herbicidal effect by foliage application, plastic box (Table 20, symbol H); format: in vivo, barnyard grass (Echinochloa crus-galli); settings: foliage application, evaluated three weeks after application
Procedure, shortened: as §1

Cc1ccccc1C(=O)Oc1c(C)nn(C)c(=O)c1-c1c(-c2ccc(OC(F)F)cc2)sc2ccc(F)cc12 [2-285]
I: wild oat, herbicidal effect (criteria 0-5) (wild oat [1]; AAH 320 g/ha): 1 (Herbicidal rate of 5% or more and less than 20%)
R: persian speedwell, herbicidal effect (criteria 0-5) (persian speedwell [2]; AAH 320 g/ha): 5 (Herbicidal rate of 90% or more (almost completely withered))
herbicidal effect on L: windgrass (windgrass [3]): 0 (Herbicidal rate of 5% or less (almost no effect))
Herbicidal effect on B: Japanese bulrush (grade 0-5) (Japanese bulrush): 3 (Herbicidal rate of 40% or more and less than 70%)
herbicidal effect rating, A: late watergrass (late watergrass): 3 (Herbicidal rate of 40% or more and less than 70%)
herbicidal effect on K: Italian ryegrass (Italian ryegrass): 2 (Herbicidal rate of 20% or more and less than 40%)
O: lambsquarters, herbicidal effect (criteria 0-5) (lambsquarters [4]; AAH 320 g/ha): 5 (Herbicidal rate of 90% or more (almost completely withered))
herbicidal effect on J: blackgrass (blackgrass): 0 (Herbicidal rate of 5% or less (almost no effect))
herbicidal effect on O: lambsquarters (lambsquarters [5]): 0 (Herbicidal rate of 5% or less (almost no effect))
herbicidal effect rating, C: oval-leafed pondweed (oval-leafed pondweed): 0 (Herbicidal rate of 5% or less (almost no effect))
herbicidal effect on D: Chinese sprangletop (Chinese sprangletop): 3 (Herbicidal rate of 40% or more and less than 70%)
L: windgrass, herbicidal effect (criteria 0-5) (windgrass [6]; AAH 320 g/ha): 0 (Herbicidal rate of 5% or less (almost no effect))
herbicidal effect on I: wild oat (wild oat [7]): 0 (Herbicidal rate of 5% or less (almost no effect))
herbicidal effect on F: southern crabgrass (southern crabgrass): 0 (Herbicidal rate of 5% or less (almost no effect))
herbicidal effect on R: persian speedwell (persian speedwell [8]): 3 (Herbicidal rate of 40% or more and less than 70%)
M: velvetleaf, herbicidal effect (criteria 0-5) (velvetleaf; AAH 320 g/ha): 5 (Herbicidal rate of 90% or more (almost completely withered))
H: barnyard grass, herbicidal effect (criteria 0-5) (barnyard grass; AAH 320 g/ha): 4 (Herbicidal rate of 70% or more and less than 90%)

CCCC(=O)Oc1c(C)nn(C)c(=O)c1-c1c(-c2ccc(OC3CC3)cc2)sc2ccc(F)cc12 [2-218]
herbicidal effect on I: wild oat (criteria 0-5) (wild oat [1]; 320 g/ha): 3 (Herbicidal rate of 40% or more and less than 70%)
herbicidal effect on R: persian speedwell (criteria 0-5) (persian speedwell [2]; 320 g/ha): 5 (Herbicidal rate of 90% or more (almost completely withered))
L: windgrass, herbicidal effect rating (windgrass [3]): 0 (Herbicidal rate of 5% or less (almost no effect))
Herbicidal effect on B: Japanese bulrush (grade 0-5) (Japanese bulrush): 5 (Herbicidal rate of 90% or more (almost completely withered))
herbicidal effect rating, A: late watergrass (late watergrass): 1 (Herbicidal rate of 5% or more and less than 20%)
K: Italian ryegrass, herbicidal effect rating (Italian ryegrass): 4 (Herbicidal rate of 70% or more and less than 90%)
herbicidal effect on O: lambsquarters (criteria 0-5) (lambsquarters [4]; 320 g/ha): 5 (Herbicidal rate of 90% or more (almost completely withered))
J: blackgrass, herbicidal effect rating (blackgrass): 0 (Herbicidal rate of 5% or less (almost no effect))
O: lambsquarters, herbicidal effect rating (lambsquarters [5]): 4 (Herbicidal rate of 70% or more and less than 90%)
herbicidal effect rating, C: oval-leafed pondweed (oval-leafed pondweed): 3 (Herbicidal rate of 40% or more and less than 70%)
herbicidal effect on D: Chinese sprangletop (Chinese sprangletop): 3 (Herbicidal rate of 40% or more and less than 70%)
herbicidal effect on L: windgrass (criteria 0-5) (windgrass [6]; 320 g/ha): 5 (Herbicidal rate of 90% or more (almost completely withered))
I: wild oat, herbicidal effect rating (wild oat [7]): 0 (Herbicidal rate of 5% or less (almost no effect))
F: southern crabgrass, herbicidal effect rating (southern crabgrass): 0 (Herbicidal rate of 5% or less (almost no effect))
R: persian speedwell, herbicidal effect rating (persian speedwell [8]): 4 (Herbicidal rate of 70% or more and less than 90%)
herbicidal effect on M: velvetleaf (criteria 0-5) (velvetleaf; 320 g/ha): 5 (Herbicidal rate of 90% or more (almost completely withered))
herbicidal effect on H: barnyard grass (criteria 0-5) (barnyard grass; 320 g/ha): 4 (Herbicidal rate of 70% or more and less than 90%)

COc1ccccc1-c1sc2ccc(Cl)cc2c1-c1c(O)c(C)nn(C)c1=O [2-101]
herbicidal effect on I: wild oat (wild oat [1]; 320 g/ha): 3 (Herbicidal rate of 40% or more and less than 70%)
herbicidal effect on R: persian speedwell (persian speedwell [2]; 320 g/ha): 5 (Herbicidal rate of 90% or more (almost completely withered))
L: windgrass, herbicidal effect rating (windgrass [3]): 0 (Herbicidal rate of 5% or less (almost no effect))
Herbicidal effect on B: Japanese bulrush (grade 0-5) (Japanese bulrush): 3 (Herbicidal rate of 40% or more and less than 70%)
herbicidal effect rating, A: late watergrass (late watergrass): 0 (Herbicidal rate of 5% or less (almost no effect))
K: Italian ryegrass, herbicidal effect rating (Italian ryegrass): 3 (Herbicidal rate of 40% or more and less than 70%)
herbicidal effect on O: lambsquarters (lambsquarters [4]; 320 g/ha): 5 (Herbicidal rate of 90% or more (almost completely withered))
J: blackgrass, herbicidal effect rating (blackgrass): 1 (Herbicidal rate of 5% or more and less than 20%)
O: lambsquarters, herbicidal effect rating (lambsquarters [5]): 4 (Herbicidal rate of 70% or more and less than 90%)
herbicidal effect rating, C: oval-leafed pondweed (oval-leafed pondweed): 5 (Herbicidal rate of 90% or more (almost completely withered))
herbicidal effect on D (Chinese sprangletop), rating 0-5 (Chinese sprangletop; 320 g/ha): 0 (Herbicidal rate of 5% or less (almost no effect))
herbicidal effect on L: windgrass (windgrass [6]; 320 g/ha): 4 (Herbicidal rate of 70% or more and less than 90%)
I: wild oat, herbicidal effect rating (wild oat [7]): 0 (Herbicidal rate of 5% or less (almost no effect))
F: southern crabgrass, herbicidal effect rating (southern crabgrass): 3 (Herbicidal rate of 40% or more and less than 70%)
R: persian speedwell, herbicidal effect rating (persian speedwell [8]): 4 (Herbicidal rate of 70% or more and less than 90%)
herbicidal effect on M: velvetleaf (velvetleaf; 320 g/ha): 5 (Herbicidal rate of 90% or more (almost completely withered))
herbicidal effect on H: barnyard grass (barnyard grass; 320 g/ha): 3 (Herbicidal rate of 40% or more and less than 70%)
